ChEMBL document CHEMBL1125036, “Antitumor properties of tetrahydrobenz[a]anthraquinone derivatives” (1990)

What was measured:
[1] = system: MCF7; assay: Anticancer activity against human breast carcinoma MCF-7 cells; assay type: functional
[2] = system: NCI-H125; assay: Anticancer activity against human nonsmall cell lung carcinoma (H125 cells); assay type: functional
[3] = system: WiDr; assay: Anticancer activity against human colon carcinoma WiDr cells; assay type: functional
[4] = system: L1210; assay: Anticancer activity against murine leukemia L1210 cells; assay type: functional, Mus musculus
[5] = system: A121; assay: Anticancer activity against human ovarian carcinoma A121 cells; assay type: functional

Structure (SMILES): COc1cc2c(c3c1C(=O)c1c(NCCNCCO)ccc(NCCNCCO)c1C3=O)CCCC2
- Activity [1]: 1000 nM
- Activity [2]: 220 nM
- Activity [3]: 960 nM
- Activity [4]: 2 µM
- Activity [5]: 100 nM
